Measurements taken from PMC9980389, “Structural and biochemical insights into PsEst3, a new GHSR-type esterase obtained from Paenibacillus sp. R4” (IUCrJ, 2023).

Key:
[1] = target: T1, PsEst3 (Paenibacillus sp. R4, UniProt Z9AKP1HDK8); experiment: inhibition of pNP-C2 hydrolysis, absorbance […] nm; type: biochemical; details: substrate pNP-C2
T1 construct: pET-22b in E. coli BL21(DE3)/pPsyGroELS, 6xHis tag kept (Ni-NTA, SEC); residues 4-258 built, including part of the His tag
T1 sequence (Z9AKP1HDK8 1-257): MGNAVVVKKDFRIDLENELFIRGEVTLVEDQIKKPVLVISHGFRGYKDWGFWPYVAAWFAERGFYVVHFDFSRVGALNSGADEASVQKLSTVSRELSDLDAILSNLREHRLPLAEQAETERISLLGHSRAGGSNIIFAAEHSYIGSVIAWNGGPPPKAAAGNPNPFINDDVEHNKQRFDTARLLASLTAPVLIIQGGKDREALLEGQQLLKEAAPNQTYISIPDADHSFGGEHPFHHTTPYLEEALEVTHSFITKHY

[2] = target: T1, PsEst3; experiment: fluorescein diester hydrolysis, fluorescence […] nm; type: biochemical; details: 20 mM Tris-HCl pH 8.0, 150 mM NaCl, 30 °C, 0.1 µM substrate, 10% 2-ethoxyethanol, 0.005% CHAPS

SMILES	% decrease in activity at 2.4 mM [1]	fluorescein diester hydrolysis, fluorescence 492/512 nm [2]
O=C(O)/C=C\C(=O)O [maleic acid]	~ 40%	–
CCCC(=O)Oc1ccc2c(c1)Oc1cc(OC(=O)CCC)ccc1C21OC(=O)c2ccccc21 [fluorescein-diC4, fluorescein dibutyrate]	–	fluorescein diesters (fluorescein-diC4, fluorescein-diC8 and fluorescein-diC12) were measured
